From patent publication US20190327974A1, “SYNERGISTS FOR IMPROVED PESTICIDES” (priority 2017, published 2019)
Read-outs that look alike come from different tables or passages of the source.

Columns and labels:
HT29 = experiment: Cell toxicity panel, viability (luminescence); type: cell-based, human; conditions: Readout: Luminescence, read-out: IC50 Viability Cells, Cell line: HT29
Method: (§1) To further establish the safety and cell toxicity of compounds according to this invention, their IC50 in killing a broad panel of human cell lines (including both cancerous and non-cancerous) cell lines was determined, and their cell toxicity was tested.

Colo205 = experiment: Cell toxicity panel, viability (luminescence); type: cell-based, human; conditions: Readout: Luminescence, read-out: IC50 Viability Cells, Cell line: Colo205
Method: as §1

HCT116 = experiment: Cell toxicity panel, viability (luminescence); type: cell-based, human; conditions: Readout: Luminescence, read-out: IC50 Viability Cells, Cell line: HCT116
Method: as §1

Hela = experiment: Cell toxicity panel, viability (luminescence); type: cell-based, human; conditions: Readout: Luminescence, read-out: IC50 Viability Cells, Cell line: Hela
Method: as §1

H23 = experiment: Cell toxicity panel, viability (luminescence); type: cell-based, human; conditions: Readout: Luminescence, read-out: IC50 Viability Cells, Cell line: H23
Method: as §1

HB-2 cells = experiment: Cellular toxicity, Cell Titer Glo; type: cell-based, human; conditions: for toxicity to HB-2 cells (in words): 48 h, up to 100 μM; for IC50: Homo sapiens, 48 h incubation, Cell Titer Glo, read-out: Viability IC50 HB-2
Method: (§2) A seven-point, two-fold dose response series, with a 100 uM as the upper limit and a DMSO-only control point was generated using an Echo 550 liquid handler (Labcyte Inc.) in 384-well plates. Subsequently, the human breast cell lines MDA-MB-231 (tumorigenic) and HB2 (non-tumorigenic) were seeded (1000 cells/well) using a multi-drop Combi (Thermo Fisher Scientific) on top of the compounds. Plates were then incubated at 37° C. and 5% CO2 for 48 hours upon which cell viability was assessed by adding CellTiter-Glo® (Promega) to the reaction. The luminescence signal was measured on a Pherastar FS multi-mode plate reader (BMG Labtech).

MDA-MB-231 cells = experiment: Cellular toxicity, Cell Titer Glo; type: cell-based, human; conditions: for IC50: Homo sapiens, MDA-MB-231, 48 h incubation, Cell Titer Glo, read-out: Viability IC50 MDA-MB-231; for toxicity to MDA-MB-231 cells (in words): 48 h, up to 100 μM
Method: as §2

Trypsin = biological target: T1, Trypsin (Bos taurus, UniProt P00760); experiment: Trypsin selectivity; type: biochemical
T1 construct: gene PRSS1
T1 sequence (P00760 24-246): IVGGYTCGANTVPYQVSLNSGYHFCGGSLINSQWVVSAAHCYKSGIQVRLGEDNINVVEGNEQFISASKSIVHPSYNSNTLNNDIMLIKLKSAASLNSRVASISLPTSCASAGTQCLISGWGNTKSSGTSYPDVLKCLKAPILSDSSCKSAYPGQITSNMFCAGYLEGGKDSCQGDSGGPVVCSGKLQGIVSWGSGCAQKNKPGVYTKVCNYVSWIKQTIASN
Method: To characterize the selectivity of boronic acids 1 to 5, they were assayed against AChE, the target of OP and carbamate insecticides (Table 1) as well as trypsin and bacterial AmpC β-lactamase. […] The toxicity of the hits against two human cell lines was further assessed.
To characterize the selectivity of boronic acids 1 to 5, they were assayed against the target of OP insecticides, AChE, as well as trypsin and bacterial AmpC β-lactamase (Table 1). AChE and αE7 are homologous, sharing the α/β-hydrolase fold and the same catalytic machinery, however the topology of their binding pockets is dissimilar (Jackson, C. J. et al. Structure and function of an insect α-carboxylesterase (αEsterase7) associated with insecticide resistance. Proc. Natl. Acad. Sci. U.S.A. 110, 10177-82 (2013) and Correy, G. J. et al. Mapping the Accessible Conformational Landscape of an Insect Carboxylesterase Using Conformational Ensemble Analysis and Kinetic Crystallography. Structure 24, 1-11 (2016).). Both trypsin and AmpC β-lactamase contain an activated serine nucleophile and oxyanion hole, however trypsin contains a serine-histidine-aspartic acid (Hedstrom, L. Serine protease mechanism and specificity. Chem. Rev. 102, 4501-4523 (2002).) while AmpC β-lactamase contains a serine-tyrosine-lysine catalytic triad (Dubus, A., et al. The roles of residues Tyr150, Glu272, and His314 in class C β-lactamases. Proteins Struct. Funct. Genet. 25, 473-485 (1996).).

[1] = biological target: T2, Electrophorus electricus AChE (Electrophorus electricus, UniProt O42275); experiment: AChE selectivity (Ellman, acetylthiocholine); type: biochemical; conditions: for Ki: tested to solubility limit, read-out: Ki Ee AChE
T2 construct: purchased Sigma Type V-S
T2 sequence (O42275 24-633): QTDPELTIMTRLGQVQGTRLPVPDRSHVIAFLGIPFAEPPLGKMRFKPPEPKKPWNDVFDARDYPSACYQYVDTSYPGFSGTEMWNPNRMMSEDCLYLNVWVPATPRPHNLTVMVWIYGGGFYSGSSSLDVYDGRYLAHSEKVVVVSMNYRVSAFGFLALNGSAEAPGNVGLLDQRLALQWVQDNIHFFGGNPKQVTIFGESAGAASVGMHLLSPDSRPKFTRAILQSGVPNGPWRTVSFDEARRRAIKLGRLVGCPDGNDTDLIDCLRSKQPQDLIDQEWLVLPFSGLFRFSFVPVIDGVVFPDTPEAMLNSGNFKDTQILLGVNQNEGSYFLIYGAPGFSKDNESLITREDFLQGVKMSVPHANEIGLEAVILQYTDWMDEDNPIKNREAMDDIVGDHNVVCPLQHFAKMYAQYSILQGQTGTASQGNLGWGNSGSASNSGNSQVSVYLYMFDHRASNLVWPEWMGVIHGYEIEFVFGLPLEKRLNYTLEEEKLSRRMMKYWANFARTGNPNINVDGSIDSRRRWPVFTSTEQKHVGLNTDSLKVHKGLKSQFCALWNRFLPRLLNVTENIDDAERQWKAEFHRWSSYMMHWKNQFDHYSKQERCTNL
Method: Initially, the KM for AChE with the substrate acetylthiocholine was determined by monitoring thiocholine production with 5,5′-dithiobis(2-nitrobenzoic acid) (DTNB) at 412 nm. Acetylthiocholine was prepared in assay buffer (100 mM NaH2PO4 pH 7.4) to 10 mM and serially diluted 1-in-2 to achieve concentrations from 10 mM to 0.08 mM while AChE was prepared in 20 mM NaH2PO4 pH 7.0 supplemented with 4 mg/ml BSA to 0.4 nM. […] The reaction was initiated by the addition of 20 μl AChE (40 pM final concentration). Product formation was monitored for six minutes at room temperature and the initial rates of thioester hydrolysis were determined by linear regression using GraphPad Prism. The Michalis constant was determined as before (FIG. 10).
AChE inhibition was determined by assaying the initial rate of acetylthiocholine hydrolysis in the presence of either neat DMSO or the boronic acid compounds in DMSO. […] Reactions were prepared by pipetting 178 μl assay buffer supplemented with acetylthiocholine (to a final concentration of 100 μM) and DTBN (to a final concentration of 300 μM) into wells of a 96-well plate. […] The reaction was initiated by the addition of 20 μl enzyme (final concentration 40 pM). Product formation was monitored for six minutes at room temperature and the initial rates of thioester hydrolysis were determined by linear regression. IC50 and Ki values were determined as described previously (FIG. 9).

Factor VII = biological target: T3, Factor VII (Homo sapiens, UniProt P08709); experiment: Protease selectivity panel; type: biochemical; conditions: 100 μM compound, n = 2
T3 construct: purchased R&D Systems
T3 sequence (P08709 213-466 limits assumed): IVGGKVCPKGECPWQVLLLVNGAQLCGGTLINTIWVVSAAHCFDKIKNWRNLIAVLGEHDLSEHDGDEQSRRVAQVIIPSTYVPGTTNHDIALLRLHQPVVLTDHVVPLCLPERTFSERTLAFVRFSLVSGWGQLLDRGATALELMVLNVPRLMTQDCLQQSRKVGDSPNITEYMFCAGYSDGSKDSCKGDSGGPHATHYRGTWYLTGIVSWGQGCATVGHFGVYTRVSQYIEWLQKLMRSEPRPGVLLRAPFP
T3 sequence (P08709 61-212 partner limits assumed): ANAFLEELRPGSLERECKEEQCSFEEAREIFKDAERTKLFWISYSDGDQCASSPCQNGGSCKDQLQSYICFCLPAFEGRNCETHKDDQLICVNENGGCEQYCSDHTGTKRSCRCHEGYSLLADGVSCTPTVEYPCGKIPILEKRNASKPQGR
T3 sequence (P13726 33-251 partner limits assumed): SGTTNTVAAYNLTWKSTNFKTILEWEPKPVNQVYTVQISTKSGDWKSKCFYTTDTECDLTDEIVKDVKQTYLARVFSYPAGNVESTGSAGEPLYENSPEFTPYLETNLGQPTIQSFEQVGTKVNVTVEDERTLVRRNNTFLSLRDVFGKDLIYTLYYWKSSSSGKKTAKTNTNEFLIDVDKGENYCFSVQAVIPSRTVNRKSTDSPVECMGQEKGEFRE
Method: (§3) Test compounds were dissolved in 100% DMSO to make 10 mM stock. Final compound concentration in assay is […]. Compounds were tested in duplicate wells at single concentration and the final concentration of DMSO in all assays was kept at 1%. Five reference compounds, AEBSF, Carfilzomib, Granzyme B Inhibitor II, Dec-RVKR-CMK, and Teneligliptin hydrobromide, were tested in an identical manner with 8 concentration points at 5× dilutions.

Furin = biological target: T4, Furin (Homo sapiens, UniProt P09958); experiment: Protease selectivity panel; type: biochemical; conditions: 100 μM compound, n = 2
T4 construct: purchased R&D Systems
T4 sequence (P09958 108-794): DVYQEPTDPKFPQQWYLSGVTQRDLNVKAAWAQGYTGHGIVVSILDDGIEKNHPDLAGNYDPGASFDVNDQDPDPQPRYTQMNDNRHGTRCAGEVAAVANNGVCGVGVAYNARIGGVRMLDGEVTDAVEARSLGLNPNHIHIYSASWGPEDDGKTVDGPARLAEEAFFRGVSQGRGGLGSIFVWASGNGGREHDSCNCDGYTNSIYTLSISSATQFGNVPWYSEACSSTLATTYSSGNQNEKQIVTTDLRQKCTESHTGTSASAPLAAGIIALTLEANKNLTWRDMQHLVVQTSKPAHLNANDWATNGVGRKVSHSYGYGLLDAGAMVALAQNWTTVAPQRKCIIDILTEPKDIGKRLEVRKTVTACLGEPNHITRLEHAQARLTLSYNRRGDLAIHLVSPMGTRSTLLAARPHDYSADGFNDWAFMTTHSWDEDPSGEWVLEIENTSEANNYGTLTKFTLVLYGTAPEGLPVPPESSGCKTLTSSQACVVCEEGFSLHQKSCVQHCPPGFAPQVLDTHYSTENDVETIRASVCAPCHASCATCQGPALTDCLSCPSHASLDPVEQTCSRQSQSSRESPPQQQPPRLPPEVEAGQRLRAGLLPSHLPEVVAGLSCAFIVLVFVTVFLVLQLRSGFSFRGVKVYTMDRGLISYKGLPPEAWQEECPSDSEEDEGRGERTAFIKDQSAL
Method: as §3

Row | Structure (SMILES) | IC50 (HT29) [µM] | IC50 (Colo205) [µM] | IC50 (HCT116) [µM] | IC50 (Hela) [µM] | IC50 (H23) [µM] | toxicity to HB-2 cells (in words) (HB-2 cells) | IC50 (HB-2 cells) [µM] | IC50 (MDA-MB-231 cells) [µM] | IC50 (HT29; Homo sapiens, HT-29) [µM] | IC50 (Colo205; Homo sapiens, COLO 205) [µM] | IC50 (HCT116; Homo sapiens, HCT-116) [µM] | IC50 (Hela; Homo sapiens, HeLa) [µM] | IC50 (H23; Homo sapiens, NCI-H23) [µM] | Ki (Trypsin) [µM] | Ki [1] [µM] | toxicity to MDA-MB-231 cells (in words) (MDA-MB-231 cells) | inhibition at 100 µM (Factor VII) [%] | inhibition at 100 µM (Furin) [%] | inhibition of Electrophorus electricus acetylcholinesterase ([1]; tested to solubility limits (FIG. 9)) [%]
1 | OB(O)c1cc(Br)cc(N2CCOCC2)c1 [Compound 3.1] | > 99.8 | > 99.8 | > 99.8 | > 99.8 | > 99.8 | – | – | – | – | – | – | – | – | – | – | – | – | – | –
2 | OB(O)c1ccc(OCc2ccccc2F)c(Cl)c1 [Compound 5, 3-Chloro-4(2′-fluorobenzyloxy) phenylboronic acid] | – | – | – | – | – | low toxicity | 77.8 | > 100 | 62.4 | 79.4 | 88.5 | 4.8 | 92.7 | > 100 | > 100 | – | – | – | –
3 | OB(O)c1cc(Br)cc(OCc2ccccc2)c1 [Compound 3.9] | – | – | – | – | – | do not exhibit any cellular toxicity | – | – | 72.8 | > 99.8 | > 99.8 | 2.1 | 99.3 | – | – | do not exhibit any cellular toxicity | 26 | -2 | –
4 | OB(O)c1cc(Br)cc(Oc2ccccc2)c1 [Compound 3.10, 3-Bromo-5-phenoxyfenylboronic acid] | – | – | – | – | – | do not exhibit any cellular toxicity | – | – | – | – | – | – | – | – | – | do not exhibit any cellular toxicity | 53 | -5 | –
5 | Cc1ccc(B(O)O)cc1Br [Compound 1] | – | – | – | – | – | – | > 100 | > 100 | > 99.8 | > 99.8 | > 99.8 | 37.9 | > 99.8 | > 100 | > 1000 | – | – | – | –
6 | OB(O)c1ccccc1 [PBA, phenylboronic acid, reference compound] | – | – | – | – | – | – | – | – | – | – | – | – | – | – | > 10000 | – | – | – | –
7 | OB(O)c1cc(Br)cc(N2CCCC2)c1 [Compound 3] | – | – | – | – | – | – | > 100 | > 100 | > 99.8 | > 99.8 | > 99.8 | 8.1 | > 99.8 | > 100 | 270 | – | 15 | 1 | > 50
8 | OB(O)c1ccc2ccccc2c1 [Compound 4] | – | – | – | – | – | – | > 100 | > 100 | > 99.8 | > 99.8 | > 99.8 | 32.7 | – | > 10 | > 1000 | – | – | – | –
9 | Cc1ccc(B(O)O)cc1OCc1ccccc1 [Compound 2] | – | – | – | – | – | low toxicity | 20.5 | > 100 | 34.1 | 91.5 | 62.8 | 4 | > 99.8 | > 100 | > 300 | – | – | – | –
